Laboratory results as given in ChEMBL document CHEMBL4257544, “Synthesis and biological evaluation of novel asymmetric naphthalene diimide derivatives as anticancer agents depending on ROS generation” (Medchemcomm, 2018).
Activity calls are given as the source filed them. The rule behind the calls is not given here.

How the values were obtained:
SMMC-7721 [1] = test: Induction of autophagy in human SMMC7721 cells assessed as increase in LC3-2 protein expression treated at 1 hr post antioxidant alpha-tocopherol addition and measured after 24 hrs by Western blot analysis; assay type: functional, cell-based
HepG2 [2] = test: Induction of autophagy in human HepG2 cells assessed as vacuolization after 12 hrs; assay type: functional, cell-based
HepG2 [3] = test: Cytotoxicity against human HepG2 cells assessed as reduction in cell viability in presence of autophagy inhibitor 3-MA by MTT assay; assay type: functional, cell-based
SMMC-7721 [4] = test: Induction of autophagy in human SMMC7721 cells assessed as decrease in p62 level at 1 to 3 uM by Western blot analysis; assay type: functional, cell-based
HepG2 [5] = test: Induction of autophagy in human HepG2 cells assessed as increase in LC3-2 protein expression treated at 1 hr post antioxidant alpha-tocopherol addition and measured after 24 hrs by Western blot analysis; assay type: functional, cell-based
HepG2 [6] = test: Antimigratory activity against human HepG2 cells at 1 to 3 uM after 24 hrs by crystal violet staining based transwell migration assay; assay type: functional, cell-based
HepG2 [7] = test: Induction of ROS generation in human HepG2 cells at 1 to 3 uM after 24 hrs by DCFH-DA staining based HCS analysis; assay type: functional, cell-based
SMMC-7721 [8] = test: Cytotoxicity against human SMMC7721 cells assessed as reduction in cell volume after 24 hrs; assay type: functional, cell-based
SMMC-7721 [9] = test: Cytotoxicity against human SMMC7721 cells assessed as cell rounding after 24 hrs; assay type: functional, cell-based
SMMC-7721 [10] = test: Potency index, ratio of amonafide IC50 to compound IC50 for cytotoxicity against human SMMC7721 cells; assay type: functional
HepG2 [11] = test: Potency index, ratio of amonafide IC50 to compound IC50 for cytotoxicity against human HepG2 cells; assay type: functional
HepG2 [12] = test: Downregulation of Akt phosphorylation at […] residue in human HepG2 cells at 1 to 3 uM after 24 hrs by Western blot analysis; assay type: functional, cell-based
HCT-116 = test: Cytotoxicity against human HCT116 cells after 48 hrs by MTT assay; assay type: functional, cell-based; details: HCT-116, 48 h
HepG2 [13] = test: Induction of autophagy in human HepG2 cells assessed as increase in BECN1 level at 1 to 3 uM by Western blot analysis; assay type: functional, cell-based
SMMC-7721 [14] = test: Downregulation of beta-catenin protein expression in human SMMC7721 cells at 1 to 3 uM after 24 hrs by Western blot analysis; assay type: functional, cell-based
HepG2 [15] = test: Induction of apoptosis in human HepG2 cells after 24 hrs by acridine orange/ethidium bromide and Hoechst 33342 staining based HCS analysis; assay type: functional, cell-based
SMMC-7721 [16] = test: Cytotoxicity against human SMMC7721 cells after 48 hrs by MTT assay; assay type: functional, cell-based; details: SMMC-7721, 48 h
HepG2 [17] = test: Induction of apoptosis in human HepG2 cells treated at 1 hr post antioxidant alpha-tocopherol addition and measured after 24 hrs by Annexin V/propidium iodide staining based flow cytometry; assay type: functional, cell-based
HepG2 [18] = test: Induction of apoptosis in human HepG2 cells assessed as increase in cleaved PARP1 protein expression treated at 1 hr post antioxidant alpha-tocopherol addition and measured after 24 hrs by Western blot analysis; assay type: functional, cell-based
HepG2 [19] = test: Induction of autophagy in human HepG2 cells assessed as decrease in p62 level at 1 to 3 uM by Western blot analysis; assay type: functional, cell-based
SMMC-7721 [20] = test: Induction of autophagy in human SMMC7721 cells assessed as vacuolization at 2 uM after 12 hrs by transmission electron microscopic method; assay type: functional, cell-based
HepG2 [21] = test: Induction of autophagy in human HepG2 cells after 24 hrs by MDC staining based HCS analysis; assay type: functional, cell-based
HepG2 [22] = test: Downregulation of beta-catenin protein expression in human HepG2 cells at 1 to 3 uM after 24 hrs by Western blot analysis; assay type: functional, cell-based
HepG2 [23] = test: Cytotoxicity against human HepG2 cells assessed as cytoplasm shrinkage after 24 hrs; assay type: functional, cell-based
HepG2 [24] = test: Antimigratory activity against human HepG2 cells treated at 1 hr post antioxidant alpha-tocopherol addition and measured after 24 hrs by scratch wound healing assay; assay type: functional, cell-based
HepG2 [25] = test: Induction of autophagy in human HepG2 cells assessed as increase in LC3-2 level by Western blot analysis; assay type: functional, cell-based
MCF7 = test: Cytotoxicity against human MCF7 cells after 48 hrs by MTT assay; assay type: functional, cell-based; details: MCF7, 48 h
HepG2 [26] = test: Induction of apoptosis in human HepG2 cells assessed as increase in p53 protein expression at 1 to 3 uM after 24 hrs by Western blot analysis; assay type: functional, cell-based

CCCCN1C(=O)c2ccc3c4c(ccc(c24)C1=O)C(=O)N(CCCN(C)C)C3=O was tested, and the Activity (SMMC-7721 [1]) was “inactive”, the Activity (HepG2 [2]) was “Active” and the Activity (HepG2 [3]) was “inactive”. For the same compound, the Activity (SMMC-7721 [4]) was “Active”, the Activity (HepG2 [5]) was “inactive” and the Activity (HepG2 [6]) was “Active”. For the same compound, the Activity (HepG2 [7]) was “Active”, the Activity (SMMC-7721 [8]) was “Active” and the Activity (SMMC-7721 [9]) was “Active”. The “Ratio IC50” value (SMMC-7721 [10]) was 5, the “Ratio IC50” value (HepG2 [11]) was 5 and the Activity (HepG2 [12]) was “Active”. The IC50 (HCT-116) was 14.7 µM, the Activity (HepG2 [13]) was “Active” and the Activity (SMMC-7721 [14]) was “Active”. The Activity (HepG2 [15]) was “Dose-dependent effect”, the IC50 (SMMC-7721 [16]) was 1.7 µM and the Activity (HepG2 [17]) was “inactive”. The Activity (HepG2 [18]) was “inactive”, the Activity (HepG2 [19]) was “Active” and the Activity (SMMC-7721 [20]) was “Active”. The Activity (HepG2 [21]) was “Dose-dependent effect”, the Activity (HepG2 [22]) was “Active” and the Activity (HepG2 [23]) was “Active”. For the same compound, the Activity (HepG2 [24]) was “inactive”, the Activity (HepG2 [25]) was “Dose-dependent effect” and the IC50 (MCF7) was 5.15 µM. For the same compound, the Activity (HepG2 [26]) was “Active”.
